The experiment has as its target T1, JAK3 (recombinant human kinase domain; h-jak3(810-1124)) (Homo sapiens, UniProt P52333).
T1 construct: h-jak3(810- 1124)-sf9-c; made in house; host or cells: Sf9 insect cells
Nature of the experiment: Determination of IC50 of Janus Kinase (JAK) inhibition: JAK3, radioactive end-point assay with 33P-ATP. Type of experiment: biochemical. To be noted: JAK3 kinase domain; ATP 1.5 uM, peptide 50 uM, 20 minutes, room temperature, 10% DMSO; read-out: Ic50 h-jak3(810-1124)-sf9-c:no additive.
T1 sequence (P52333 810-1124): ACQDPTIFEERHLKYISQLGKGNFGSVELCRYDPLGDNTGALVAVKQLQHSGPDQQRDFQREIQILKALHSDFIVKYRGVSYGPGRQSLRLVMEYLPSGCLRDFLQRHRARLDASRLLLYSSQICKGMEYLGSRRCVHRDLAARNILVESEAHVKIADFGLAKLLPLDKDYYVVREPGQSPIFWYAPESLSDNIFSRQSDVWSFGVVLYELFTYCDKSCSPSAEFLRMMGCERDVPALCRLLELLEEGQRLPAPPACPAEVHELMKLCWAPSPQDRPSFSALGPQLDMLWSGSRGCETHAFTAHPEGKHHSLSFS
Text: Determination of IC50 of Janus Kinase (JAK) Inhibition:
Enzymes and peptide substrate used are described below: • JAK1: Recombinant human kinase domain from Invitrogen (Cat # PV4774) • JAK3: Recombinant human kinase domain from Millipore (Cat #14-629) or prepared. • JAK2: Recombinant human kinase domain from Millipore (Cat #14-640) • Substrate: N-terminally biotinylated 14-mer peptide derived from activation loop of JAK1 with sequence of the peptide substrate: Biotin-[sequence]
Assay Conditions Used are Described Below: • Assay Buffer: JAK Kinase Buffer: 50 mM Hepes [pH 7.2], 10 mM MgCl2, 1 mM DTT, • 1 mg/ml BSA. The assay is carried out in this buffer. • Assay Format The kinase activity of all three JAK kinases is measured using a radioactive, end-point assay and with trace amounts of ^33P-ATP. The assays are carried out in 96-well polypropylene plates.
All concentrations are final in the reaction mixture and all incubations are carried at room temperature. […] Final concentration of DMSO in the reaction is 10%. • 2) Compounds are preincubated with enzyme (0.5 nM JAK3 (commercially available), 0.2 nM JAK3 (prepared), 1 nM JAK2, 5 nM JAK1) for 10 minutes. • 3) Reactions are initiated by the addition of a cocktail of the two substrates (ATP and peptide premixed in the JAK Kinase Buffer). In the JAK2/JAK3 assays, ATP and the peptide are used at concentrations of 1.5 uM and 50 uM, respectively. JAK1 assay is carried out at an ATP concentration of 10 uM and a peptide concentration of 50 uM. • 4) The duration of the assay for JAK2 and JAK3 is 20 minutes. JAK1 assay is carried out for 40 minutes. With all three enzymes, reactions are terminated by the addition of 0.5M EDTA to a final concentration of 100 mM. • 5) 25 ul of terminated reactions are transferred to 150 ul of a 7.5% (v/v) slurry of streptavidin-coated sepharose beads in MgCl2- and CaCl2-free 1× Phosphate Buffered Saline containing 50 mM of EDTA in 96-well, 1.2 um MultiScreen-BV filter plates. • 6) After a 30-minute incubation, the beads are washed under vacuum with the following buffers: • a. 3 to 4 washes with 200 ul of 2M NaCl. • b. 3 to 4 washes with 200 ul of 2M NaCl plus 1% (v/v) phosphoric acid. • c. 1 wash with water. • 7) Washed plates are dried in a 60° C. oven for between 1 to 2 hours. • 8) 70 ul of Microscint 20 scintillation fluid is added to each well of filter plates and after at least 30 minutes of incubation, radioactive counts are measured in a Perkin-Elmer microplate scintillation counter.
With `COCC(C)NC(=O)c1c[nH]c2ncc(C3CC3)nc12` (centres unmarked) [Example I-9, 2-Cyclopropyl-5H-pyrrolo[2,3-b]pyrazine-7-carboxylic acid (2-methoxy-1-methyl-ethyl)-amide], the half-maximal inhibitory concentration (IC50) was 0.0196 µM.

Take `Cc1cccc(Oc2cnc3[nH]cc(C(=O)NC(C)C)c3n2)n1` [Example I-278, 2-(6-Methyl-pyridin-2-yloxy)-5H-pyrrolo[2,3-b]pyrazine-7-carboxylic acid isopropylamide]: the IC50 was found to be 0.491 µM.

Regarding `CCNC(=O)c1c[nH]c2ncc(Oc3ccc4c(c3)CCCC4)nc12` [Example I-260, 2-(5,6,7,8-Tetrahydro-naphthalen-2-yloxy)-5H-pyrrolo[2,3-b]pyrazine-7-carboxylic acid ethylamide], the IC50 was determined as 1.53 µM.

Consider `C[C@H](NC(=O)c1c[nH]c2ncc(-c3ccc(C(=O)N[C@H]4C[C@@H]4c4ccccc4)s3)nc12)C(C)(C)C` [Example I-191, 2-[5-((1S,2R)-2-Phenyl-cyclopropyl-carbamoyl)-thiophen-2-yl]-5H-pyrrolo[2,3-b]pyrazine-7-carboxylic acid ((S)-1,2,2-trimethyl-propyl)-amide], for which the IC50 was 0.00055 µM.

For the compound `CCC(NC(=O)c1c[nH]c2ncc(C3CC3)nc12)C1CCCCC1` (centres unmarked) [Example I-75, 2-Cyclopropyl-5H-pyrrolo[2,3-b]pyrazine-7-carboxylic acid (1-cyclohexyl-propyl)-amide], the IC50 amounted to 0.0687 µM.

Consider `CC(C)(CO)CNC(=O)c1c[nH]c2ncc(C(F)(F)F)nc12` [Example I-35, 2-Trifluoromethyl-5H-pyrrolo[2,3-b]pyrazine-7-carboxylic acid (3-hydroxy-2,2-dimethyl-propyl)-amide], for which the IC50 came to 1.04 µM.

For `CC[C@@](C)(O)[C@@H](C)NC(=O)c1c[nH]c2ncc(C3CC3)nc12` [Example I-83, 2-Cyclopropyl-5H-pyrrolo[2,3-b]pyrazine-7-carboxylic acid ((1R,2R)-2-hydroxy-1,2-dimethyl-butyl)-amide], the IC50 stood at 0.0473 µM.

Consider `COc1ccccc1CNC(=O)c1ccc(-c2cnc3[nH]cc(C(=O)N[C@@H](C)C(C)(C)C)c3n2)s1` [Example I-203, 2-[5-(2-Methoxy-benzylcarbamoyl)-thiophen-2-yl]-5H-pyrrolo[2,3-b]pyrazine-7-carboxylic acid ((S)-1,2,2-trimethyl-propyl)-amide], for which the IC50 turned out to be 0.0004 µM.

For the compound `CCNC(=O)c1c[nH]c2ncc(Oc3cccc4ccccc34)nc12` [Example I-261, 2-(Naphthalen-1-yloxy)-5H-pyrrolo[2,3-b]pyrazine-7-carboxylic acid ethylamide], the IC50 stood at 2.99 µM.

As to `N#CCC(NC(=O)c1c[nH]c2ncc(C3CC3)nc12)C1CC1` (centres unmarked) [Example I-106, 2-Cyclopropyl-5H-pyrrolo[2,3-b]pyrazine-7-carboxylic acid (2-cyano-1-cyclopropyl-ethyl)-amide], the IC50 stood at 0.0147 µM.

`C[C@H](NC(=O)c1c[nH]c2ncc(C3CC3)nc12)c1ccccc1` [Example I-67, 2-Cyclopropyl-5H-pyrrolo[2,3-b]pyrazine-7-carboxylic acid ((S)-1-phenyl-ethyl)-amide]: the IC50 was found to be 0.427 µM.

In the case of `C[C@@H](NC(=O)c1c[nH]c2ncc(Oc3ccccc3)nc12)C(C)(C)C` [Example I-130, 2-Phenoxy-5H-pyrrolo[2,3-b]pyrazine-7-carboxylic acid ((R)-1,2,2-trimethyl-propyl)-amide], the half-maximal inhibitory concentration (IC50) is 0.659 µM.

As for `N#CCCCNC(=O)c1c[nH]c2ncc(C3CC3)nc12` [Example I-33, 2-Cyclopropyl-5H-pyrrolo[2,3-b]pyrazine-7-carboxylic acid (3-cyano-propyl)-amide], the 50% inhibitory concentration (IC50) was determined as 0.493 µM.

For `CCn1cc(-c2cnc3[nH]cc(C(=O)N[C@@H](C)C4(O)CCCC4)c3n2)cn1` [Example I-138, 2-(1-Ethyl-1H-pyrazol-4-yl)-5H-pyrrolo[2,3-b]pyrazine-7-carboxylic acid [(S)-1-(1-hydroxy-cyclopentyl)-ethyl]-amide], the IC50 is 0.00501 µM.

These data come from patent publication US20140155376A1, “PYRROLOPYRAZINE KINASE INHIBITORS” (Hoffmann-La Roche Inc., priority 2010, published 2014).
